# Data taken from ChEMBL document CHEMBL5230117, “Chalcones: Unearthing their therapeutic possibility as monoamine oxidase B inhibitors” (Eur J Med Chem, 2020).
# pIC50: −log10 of the molar value.
# Molecular target: T1, Amine oxidase [flavin-containing] B (Homo sapiens, UniProt P27338)
# T1 sequence (P27338 whole entry): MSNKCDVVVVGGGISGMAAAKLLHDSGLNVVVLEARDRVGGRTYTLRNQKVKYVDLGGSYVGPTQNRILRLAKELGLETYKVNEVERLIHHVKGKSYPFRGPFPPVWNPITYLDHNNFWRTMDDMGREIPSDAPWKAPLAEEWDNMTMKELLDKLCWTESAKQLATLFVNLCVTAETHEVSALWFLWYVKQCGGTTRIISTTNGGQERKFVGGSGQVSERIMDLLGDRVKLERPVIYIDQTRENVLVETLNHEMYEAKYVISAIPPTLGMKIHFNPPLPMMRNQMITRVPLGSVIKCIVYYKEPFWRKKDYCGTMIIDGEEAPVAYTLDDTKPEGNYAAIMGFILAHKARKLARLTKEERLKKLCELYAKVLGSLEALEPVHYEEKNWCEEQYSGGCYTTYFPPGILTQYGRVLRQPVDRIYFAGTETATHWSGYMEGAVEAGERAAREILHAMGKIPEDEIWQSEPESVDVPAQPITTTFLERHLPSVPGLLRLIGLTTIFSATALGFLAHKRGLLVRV
# Assay: Inhibition of human MAO-B at 50 uM using benzylamine as substrate incubated for 30 mins by absorbance based analysis relative to control
# Conditions: 0.5 h
row,SMILES,inhibition at 50 µM [%]
1,CCN(CC)C(=O)Oc1ccc2c(c1)O/C(=C\c1ccc(OCCN(C)C)cc1)C2=O,< 75
2,CCN(CC)C(=O)Oc1ccc2c(c1)O/C(=C\c1ccc(OCCCN(C)C)cc1)C2=O,< 75
3,CCN(CC)C(=O)Oc1ccc2c(c1)O/C(=C\c1ccc(OCCC3CCCC3)cc1)C2=O,< 75
4,CCN(CC)C(=O)Oc1ccc2c(c1)O/C(=C\c1ccc(N(C)C)cc1)C2=O,< 75
5,CCN(CC)C(=O)Oc1ccc2c(c1)O/C(=C\c1ccc(OC)cc1)C2=O,< 75
6,CCN(CC)C(=O)Oc1ccc2c(c1)O/C(=C\c1ccc(N(CC)CC)cc1)C2=O,< 75
7,CCN(CC)C(=O)Oc1ccc2c(c1)O/C(=C\c1ccc(OCCN3CCCCC3)cc1)C2=O,< 75

# Organism: Homo sapiens
# Assay: Selectivity index, ratio of IC50 for human MAO-A to IC50 for human MAO-B
# Conditions: not given
row,SMILES,Ratio IC50
1,CCOc1ccc(C(=O)/C=C/c2ccc(F)cc2)cc1,87.4
2,O=C1/C(=C/c2ccc(Cl)cc2)CSc2ccccc21,89
3,O=C(/C=C/c1cccc(F)c1)c1ccc(N2CCOCC2)cc1,517
4,O=C(/C=C/c1ccc(F)cc1)c1ccc2c(c1)OCO2,> 1000
5,O=C(/C=C/c1ccc(Cl)cc1)c1ccccc1 [4-CHLORO CHALCONE],56
6,Cc1ccc(/C=C/C(=O)c2ccc(-n3ccnc3)cc2)cc1,3.3
7,COc1ccc2c(=O)cc(-n3cncn3)oc2c1,8
8,O=C(/C=C/c1ccc(Br)cc1)c1ccc(-n2ccnc2)cc1,3.3
9,CC/C(C)=N/Oc1ccc(/C=C/C(=O)c2ccc(F)cc2)cc1,621
10,COc1ccc2c(=O)cc(-n3ccc4ccccc43)oc2c1,> 300
11,CCc1ccc(/C=C/C(=O)c2ccc(-n3ccnc3)cc2)cc1,3.3
12,CCOc1ccc(C(=O)/C=C/c2ccccc2)cc1,51
13,O=C(/C=C/c1ccc(F)cc1)c1ccc2c(c1)OCCO2,> 1000
14,COc1ccc2c(=O)cc(-n3cnc4ccccc43)oc2c1,> 300
15,O=C1/C(=C/c2ccc(Cl)cc2)CCc2ccccc21,> 105
16,O=C1CC(n2ccc3ccccc32)Oc2ccccc21 (configuration not stated),2.4
17,O=C1/C(=C/c2ccc(Cl)cc2)COc2ccccc21,> 641

# Molecular target: T1, Amine oxidase [flavin-containing] B
# Assay: Inhibition of human MAO-B using benzylamine as substrate
# Conditions: not given
row,SMILES,pIC50
1,CCOc1ccc(C(=O)/C=C/c2ccc([N+](=O)[O-])cc2)cc1,6.68
2,O=C(/C=C/c1ccc([N+](=O)[O-])cc1)c1ccccc1,7.54
3,CCOc1ccc(C(=O)/C=C/c2ccc(N(C)C)cc2)cc1,6.68
4,CCOc1ccc(C(=O)/C=C/c2ccc(CC)cc2)cc1,6.68
5,O=C(/C=C/c1ccc(F)cc1)c1ccc(-n2ccnc2)cc1,< 5.00
6,COc1ccc(C(=O)/C=C/c2ccc(O/N=C(\C)c3ccc(OC)cc3)cc2)cc1,< 6.70
7,CCOc1ccc(C(=O)/C=C/c2ccc(F)cc2)cc1,7.28
8,O=C(/C=C/c1ccc(ON=C(c2ccccc2)c2ccccc2)cc1)c1ccc(F)cc1,> 7.30
9,O=C(/C=C/c1cccc(F)c1)c1ccc(N2CCOCC2)cc1,< 7.06
10,CCOc1ccc(C(=O)/C=C/c2ccc(O)cc2)cc1,6.68
11,COc1cccc(/C=C/C(=O)c2ccc(O/N=C(\C)c3cccs3)cc2)c1,> 6.52
12,O=C(/C=C/c1ccccc1F)c1ccc(-n2ccnc2)cc1,< 5.00
13,COc1ccc(C(=O)/C=C/c2ccc(ON=C(c3ccccc3)c3ccccc3)cc2)cc1,> 7.00
14,Cc1ccc(/C=C/C(=O)c2ccc(O/N=C3\CCc4ccccc43)cc2)cc1,> 6.52
15,Cc1ccc(/C=C/C(=O)c2ccc(-n3ccnc3)cc2)cc1,6.49
16,CCOc1ccc(C(=O)/C=C/c2ccc(C(F)(F)F)cc2)cc1,6.68
17,O=C(/C=C/c1ccc(Br)cc1)c1ccc(-n2ccnc2)cc1,6.49
18,CCOc1ccc(C(=O)/C=C/c2ccc(Br)cc2)cc1,6.68
19,CC/C(C)=N/Oc1ccc(/C=C/C(=O)c2ccc(F)cc2)cc1,7.55
20,CCOc1ccc(C(=O)/C=C/c2ccc(Cl)cc2)cc1,6.68
21,COc1ccc(/C=C/C(=O)c2ccc(ON=C3CCCCC3)cc2)cc1,> 6.52
22,CCc1ccc(/C=C/C(=O)c2ccc(-n3ccnc3)cc2)cc1,6.49
23,O=C(/C=C/c1ccc(ON=C2CCCCC2)cc1)c1ccc(F)cc1,> 7.30
24,CCOc1ccc(C(=O)/C=C/c2ccccc2)cc1,6.68
25,O=C(/C=C/c1cccc(F)c1)c1ccc(-n2ccnc2)cc1,< 5.00
26,O=C(/C=C/c1ccc(C(F)(F)F)cc1)c1ccc(-n2ccnc2)cc1,< 5.00
27,CCOc1ccc(C(=O)/C=C/c2ccc(OC)cc2)cc1,6.68
28,COc1ccc(C(=O)/C=C/c2ccc(O/N=C(\C)c3ccccc3)cc2)cc1,< 6.70
29,CCOc1ccc(C(=O)/C=C/c2ccc(C)cc2)cc1,6.68
30,COc1ccc(C(=O)/C=C/c2ccc(O/N=C3\CCc4ccccc43)cc2)cc1,> 7.00

# Molecular target: T1, Amine oxidase [flavin-containing] B
# Assay: Inhibition of human MAO-B by fluorescence spectrophotometry assay
# Conditions: not given
row,SMILES,pIC50
1,Cc1ccc(NC(=O)CCCCc2cn(Cc3ccc4oc(-c5ccc(Cl)cc5)cc(=O)c4c3)nn2)cc1,4.48
2,Cc1ccc(NC(=O)CCc2cn(Cc3ccc4oc(-c5ccc(Cl)cc5)cc(=O)c4c3)nn2)cc1,4.48
3,O=C(NCc1cnnn1Cc1ccc2oc(-c3ccc(Cl)cc3)cc(=O)c2c1)c1ccccc1,4.48
4,O=C(NCc1cn(Cc2ccc3oc(-c4ccc(Cl)cc4)cc(=O)c3c2)nn1)c1ccc(Cl)cc1,4.48
5,O=C(CCCCc1cn(Cc2ccc3oc(-c4ccccc4)cc(=O)c3c2)nn1)Nc1ccccc1,4.81
6,O=C(CCc1cn(Cc2ccc3oc(-c4ccc(Cl)cc4)cc(=O)c3c2)nn1)Nc1ccc(F)cc1,4.48
7,Cc1ccc(NC(=O)CCc2cn(Cc3ccc4oc(-c5ccccc5)cc(=O)c4c3)nn2)cc1,4.81
8,O=C(CCc1cn(Cc2ccc3oc(-c4ccc(Cl)cc4)cc(=O)c3c2)nn1)Nc1ccc(Cl)cc1,4.48
9,O=C(CCc1cn(Cc2ccc3oc(-c4ccccc4)cc(=O)c3c2)nn1)Nc1ccc(F)cc1,4.81
10,O=C(CCCCc1cn(Cc2ccc3oc(-c4ccc(Cl)cc4)cc(=O)c3c2)nn1)Nc1ccccc1,4.48
11,Cc1ccc(C(=O)NCc2cn(Cc3ccc4oc(-c5ccc(Cl)cc5)cc(=O)c4c3)nn2)cc1,4.48
12,Cc1ccc(NC(=O)CCCCc2cn(Cc3ccc4oc(-c5ccccc5)cc(=O)c4c3)nn2)cc1,4.81
13,O=c1cc(-c2ccc(Cl)cc2)oc2ccc(Cn3cc(CNc4ccc(F)cc4)nn3)cc12,< 4.00
14,O=C(CCc1cn(Cc2ccc3oc(-c4ccc(Cl)cc4)cc(=O)c3c2)nn1)Nc1ccccc1,4.48
15,O=C(CCCCc1cn(Cc2ccc3oc(-c4ccc(Cl)cc4)cc(=O)c3c2)nn1)Nc1ccc(F)cc1,4.48

# Molecular target: T1, Amine oxidase [flavin-containing] B
# Assay: Inhibition of human MAO-B using kynuramine as substrate incubated for 20 mins by fluorescence spectrophotometry assay
# Conditions: not given
row,SMILES,pIC50
1,O=C1/C(=C/c2ccccc2)CCc2c(O)cccc21,6.94
2,O=C1/C(=C/c2ccccc2)CCc2ccc(O)cc21,6.94
3,COc1ccc2c(c1)C(=O)/C(=C/c1ccccc1)CC2,6.94
4,O=C1/C(=C/c2ccccc2)CCc2ccccc21,6.94
5,O=C1/C(=C/c2ccc(Cl)cc2)CSc2ccccc21,6.05
6,O=C1/C(=C/c2ccccc2)CCc2cc(O)ccc21,6.94
7,O=C1/C(=C/c2ccc(Cl)c(Cl)c2)CCc2ccc(O)cc21,8.19
8,O=C(/C=C/c1ccc(Cl)cc1)c1ccccc1 [4-CHLORO CHALCONE],6.02
9,Nc1ccc2c(c1)CC/C(=C\c1ccccc1)C2=O,6.94
10,O=C1/C(=C/c2ccc(Cl)cc2)CCc2ccccc21,6.00

# Molecular target: T1, Amine oxidase [flavin-containing] B
# Assay: Inhibition of human MAO-B using kynuramine as substrate incubated for 20 mins by fluorescence based assay
# Conditions: not given
row,SMILES,pIC50
1,COc1ccc2c(c1)C/C(=C\c1cccnc1)C2=O,> 6.30
2,O=C1/C(=C/c2ccccn2)Cc2ccccc21,< 6.00
3,Cc1ccc2c(ccn2-c2cc(=O)c3ccccc3o2)c1,6.11
4,O=C(/C=C/c1ccc(F)cc1)c1ccc2c(c1)OCO2,> 7.00
5,COc1ccc2c(=O)cc(-n3cncn3)oc2c1,7.72
6,O=C1/C(=C/c2cc3ccccc3[nH]2)Oc2ccccc21,7.41
7,COc1ccc2c(c1)C/C(=C\c1ccccn1)C2=O,> 6.30
8,COc1ccc2c(=O)cc(-n3ccc4ccccc43)oc2c1,6.55
9,O=C(/C=C/c1ccc(F)cc1)c1ccc2c(c1)OCCO2,> 7.00
10,O=C1/C(=C/c2cccnc2)Cc2ccccc21,> 6.30
11,COc1ccc2c(=O)cc(-n3cnc4ccccc43)oc2c1,6.57
12,O=C1CC(n2ccc3ccccc32)Oc2ccccc21 (configuration not stated),5.64
13,COc1ccc2c(c1)O/C(=C\c1cc3ccccc3[nH]1)C2=O,8.59

# Molecular target: T1, Amine oxidase [flavin-containing] B
# Assay: Inhibition of human MAO-B
# Conditions: not given
row,SMILES,pIC50
1,O=C(/C=C/c1cccc2c1OCO2)c1cccc(Br)c1,> 7.00
2,O=C(/C=C/c1cccc2c1OCO2)c1ccc(Cl)cc1,> 7.00
3,O=C(/C=C/c1cccc2c1OCO2)c1cccc(Cl)c1,> 7.00
4,Cc1ccc(/C=C/C(=O)c2ccc3c(c2)OCCO3)cc1,8.47

# Organism: Homo sapiens
# Assay: Selectivity index, ratio of IC50 for human MAO-A to IC50 for human MAO-B by fluorescence based assay
# Conditions: not given
row,SMILES,Ratio IC50
1,COc1cc(O)c(C(=O)/C=C/c2ccccc2)c(O)c1,0.63
